According to ChEMBL document CHEMBL1201862, “PubChem BioAssay data set” (2004):
Where “and” joins values, the source holds several entries; their conditions need not be identical. Equal entries are not always repeated. Calls of active or inactive are those of the source. Unless noted, no cut-off for these calls is given here.

Assays:
[1] = target: Beta-lactamase (Salmonella choleraesuis (strain SC-B67), UniProt Q5J463)
[2] = target: T1, Beta Lactamase (Pseudomonas aeruginosa, UniProt Q932Y6);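 note: confirmatory high-throughput screen measuring VIM-2 metallo-beta-lactamase inhibition by epi-absorbance in dose response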
T1 sequence (Q932Y6 whole entry, the tested form may be a part): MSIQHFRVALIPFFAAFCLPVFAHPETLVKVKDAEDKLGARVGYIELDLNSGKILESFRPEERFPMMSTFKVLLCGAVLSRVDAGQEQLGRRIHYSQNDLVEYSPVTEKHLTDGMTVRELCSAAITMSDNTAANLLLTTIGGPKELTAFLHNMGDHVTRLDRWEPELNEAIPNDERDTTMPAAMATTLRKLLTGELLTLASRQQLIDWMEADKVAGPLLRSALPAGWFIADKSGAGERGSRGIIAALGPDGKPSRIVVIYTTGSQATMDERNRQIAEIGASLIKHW

[3] = test system: CHO; experiment: CHO cell viability loss, potency – luminescence, cytotoxicity control for TLR9-MyD88 binding inhibitor project, dose response (AID 588339); assay type: functional, cell-based, hamster; conditions: Cricetulus griseus;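 note: CHO cells stably coexpressing TLR9 and MyD88 fusions from primary screen; compound exposure lasted 48 hours before viability readout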
[4] = target: T1, Beta Lactamase; experiment: BLA reporter interference, concentration series – BLA reporter cells, FRET fluorescence, artefact control for TLR9-MyD88 binding inhibitor project, dose response (AID 588341); assay type: cell-based;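 note: cell based assay in CHO-K1 cells stably expressing beta-lactamase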
[5] = target: Beta-lactamase (Pseudomonas aeruginosa, UniProt Q79MP6);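 note: biochemical dose-response test of metallo-beta-lactamase enzyme inhibition, read out by epi-absorbance; purified recombinant IMP-1 metallo-beta-lactamase with nitrocefin as substrate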
Chain of Beta-lactamase (Pseudomonas aeruginosa, UniProt Q79MP6) (Q79MP6 whole entry): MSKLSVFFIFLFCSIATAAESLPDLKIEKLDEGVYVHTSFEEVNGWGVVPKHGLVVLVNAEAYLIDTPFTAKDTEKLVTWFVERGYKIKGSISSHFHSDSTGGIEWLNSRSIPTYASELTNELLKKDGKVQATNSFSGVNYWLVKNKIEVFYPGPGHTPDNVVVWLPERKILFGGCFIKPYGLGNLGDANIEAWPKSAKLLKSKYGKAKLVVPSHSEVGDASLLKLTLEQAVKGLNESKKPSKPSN

[6] = target: Prothrombin (Bos taurus, UniProt P00735); experiment: thrombin protease inhibitors – biochemical, fluorescence polarization, uHTS hits, dose response (AID 602369); assay type: functional
[7] = target: 72 kDa type IV collagenase (Homo sapiens, UniProt P08253); experiment: Dose Response validation of uHTS RPN11 inhibitor hits using a MMP-2 Fluorescence assay.; assay type: functional
Chain of 72 kDa type IV collagenase (P08253 whole entry): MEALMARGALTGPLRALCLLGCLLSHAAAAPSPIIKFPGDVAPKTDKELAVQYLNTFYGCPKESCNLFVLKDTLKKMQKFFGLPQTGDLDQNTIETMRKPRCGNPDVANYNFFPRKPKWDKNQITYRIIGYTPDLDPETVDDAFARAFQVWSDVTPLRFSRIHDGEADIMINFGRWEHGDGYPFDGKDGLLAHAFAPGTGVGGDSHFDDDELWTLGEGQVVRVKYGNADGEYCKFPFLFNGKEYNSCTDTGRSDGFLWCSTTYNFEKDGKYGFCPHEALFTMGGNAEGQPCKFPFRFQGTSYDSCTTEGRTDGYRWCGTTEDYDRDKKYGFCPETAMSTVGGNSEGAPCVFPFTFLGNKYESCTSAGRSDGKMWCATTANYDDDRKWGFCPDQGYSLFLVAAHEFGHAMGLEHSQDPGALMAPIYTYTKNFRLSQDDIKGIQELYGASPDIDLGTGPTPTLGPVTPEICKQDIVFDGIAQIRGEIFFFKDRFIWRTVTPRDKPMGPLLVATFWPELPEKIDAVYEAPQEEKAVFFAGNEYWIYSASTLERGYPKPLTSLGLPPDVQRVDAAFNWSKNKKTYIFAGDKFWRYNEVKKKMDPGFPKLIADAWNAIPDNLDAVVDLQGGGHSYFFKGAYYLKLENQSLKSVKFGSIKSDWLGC

[8] = target: 26S proteasome non-ATPase regulatory subunit 14 (Homo sapiens, UniProt O00487); experiment: inhibition of proteasome subunit RPN11 – biochemical, fluorescence polarization, uHTS hits, confirmation (AID 602368); assay type: functional
Chain of 26S proteasome non-ATPase regulatory subunit 14 (O00487 whole entry): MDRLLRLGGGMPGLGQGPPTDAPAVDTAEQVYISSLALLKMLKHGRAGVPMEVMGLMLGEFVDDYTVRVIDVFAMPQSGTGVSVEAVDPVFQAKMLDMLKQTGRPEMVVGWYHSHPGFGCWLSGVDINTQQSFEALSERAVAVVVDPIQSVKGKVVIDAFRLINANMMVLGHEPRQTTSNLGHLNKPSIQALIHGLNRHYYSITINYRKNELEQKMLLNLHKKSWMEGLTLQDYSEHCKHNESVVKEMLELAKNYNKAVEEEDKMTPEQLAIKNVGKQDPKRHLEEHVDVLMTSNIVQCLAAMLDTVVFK

[9] = target: T2, Sentrin-specific protease 6 (Homo sapiens, UniProt Q9GZR1); experiment: SAR Analysis of small molecule inhibitors of Sentrin-specific protease 6 (SENP6) using a Luminescent assay. [Related pubchem assays (depositor defined):AID2582, AID2599]; assay type: functional
T2 sequence (Q9GZR1 whole entry): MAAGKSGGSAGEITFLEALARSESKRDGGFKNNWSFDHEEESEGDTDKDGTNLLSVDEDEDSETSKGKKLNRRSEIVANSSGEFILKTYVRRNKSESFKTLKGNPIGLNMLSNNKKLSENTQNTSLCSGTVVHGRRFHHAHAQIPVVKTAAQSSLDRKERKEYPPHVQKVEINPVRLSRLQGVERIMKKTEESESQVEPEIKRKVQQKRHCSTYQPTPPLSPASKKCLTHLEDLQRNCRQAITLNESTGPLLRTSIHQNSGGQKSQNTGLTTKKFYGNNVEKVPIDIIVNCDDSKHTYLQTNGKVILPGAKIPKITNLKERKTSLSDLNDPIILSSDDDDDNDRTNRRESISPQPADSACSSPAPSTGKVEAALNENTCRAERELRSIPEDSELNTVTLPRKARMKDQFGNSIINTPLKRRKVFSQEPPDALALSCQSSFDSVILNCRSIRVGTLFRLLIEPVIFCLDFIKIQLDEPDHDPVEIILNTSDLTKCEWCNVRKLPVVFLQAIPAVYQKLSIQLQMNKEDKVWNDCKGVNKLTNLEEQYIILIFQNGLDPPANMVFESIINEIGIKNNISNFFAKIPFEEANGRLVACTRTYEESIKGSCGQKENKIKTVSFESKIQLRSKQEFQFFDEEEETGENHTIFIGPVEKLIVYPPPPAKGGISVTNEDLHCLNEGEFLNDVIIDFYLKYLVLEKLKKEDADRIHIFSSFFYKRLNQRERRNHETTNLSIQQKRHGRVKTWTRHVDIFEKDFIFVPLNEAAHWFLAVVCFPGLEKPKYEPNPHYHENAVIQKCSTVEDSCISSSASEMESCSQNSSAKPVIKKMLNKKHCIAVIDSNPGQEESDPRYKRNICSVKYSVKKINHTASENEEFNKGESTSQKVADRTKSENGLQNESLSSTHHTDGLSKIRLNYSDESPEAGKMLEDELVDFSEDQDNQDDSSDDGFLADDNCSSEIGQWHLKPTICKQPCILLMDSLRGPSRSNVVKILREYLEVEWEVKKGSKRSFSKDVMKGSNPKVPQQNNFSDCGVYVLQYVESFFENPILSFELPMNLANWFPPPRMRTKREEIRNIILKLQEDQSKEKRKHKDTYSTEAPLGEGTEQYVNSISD

[10] = target: T3, Sentrin-specific protease 7 (Homo sapiens, UniProt Q9BQF6); experiment: inhibition of human SENP7 cleavage activity – biochemical, luminescence, SAR follow-up (AID 504497); assay type: functional
T3 sequence (Q9BQF6 whole entry): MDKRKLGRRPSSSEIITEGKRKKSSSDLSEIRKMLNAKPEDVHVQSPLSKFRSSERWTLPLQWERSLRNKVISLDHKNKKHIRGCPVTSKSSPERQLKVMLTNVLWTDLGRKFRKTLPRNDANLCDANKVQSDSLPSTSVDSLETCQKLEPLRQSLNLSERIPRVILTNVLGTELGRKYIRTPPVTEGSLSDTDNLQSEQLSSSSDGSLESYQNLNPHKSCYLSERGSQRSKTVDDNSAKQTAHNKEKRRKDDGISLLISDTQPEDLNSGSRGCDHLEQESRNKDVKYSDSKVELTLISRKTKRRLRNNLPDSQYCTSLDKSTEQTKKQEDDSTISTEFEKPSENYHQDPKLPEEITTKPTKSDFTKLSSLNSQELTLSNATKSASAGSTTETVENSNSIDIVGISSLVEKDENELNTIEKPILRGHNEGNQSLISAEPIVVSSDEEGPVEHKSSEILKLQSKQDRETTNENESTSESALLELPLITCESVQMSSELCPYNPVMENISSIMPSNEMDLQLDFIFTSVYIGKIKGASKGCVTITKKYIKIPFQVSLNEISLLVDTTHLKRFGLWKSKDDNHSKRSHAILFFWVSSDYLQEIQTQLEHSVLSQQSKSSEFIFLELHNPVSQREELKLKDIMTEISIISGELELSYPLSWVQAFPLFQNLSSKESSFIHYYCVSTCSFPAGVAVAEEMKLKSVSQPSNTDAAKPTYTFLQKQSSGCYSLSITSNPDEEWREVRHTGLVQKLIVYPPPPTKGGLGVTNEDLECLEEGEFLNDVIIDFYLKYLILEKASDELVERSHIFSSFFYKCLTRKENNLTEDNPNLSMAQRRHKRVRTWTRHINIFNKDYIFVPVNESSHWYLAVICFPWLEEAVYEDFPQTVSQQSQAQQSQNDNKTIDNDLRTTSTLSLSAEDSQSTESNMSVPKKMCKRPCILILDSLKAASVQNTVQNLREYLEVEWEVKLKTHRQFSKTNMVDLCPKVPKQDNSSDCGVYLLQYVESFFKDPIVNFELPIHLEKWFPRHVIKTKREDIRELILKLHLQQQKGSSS

[11] = target: T4, Caspase-3 (Homo sapiens, UniProt P42574); experiment: SAR Analysis of small molecule inhibitors of Sentrin-specific proteases (SENPs) using a Caspase-3 Selectivity assay. [Related pubchem assays (depositor defined):AID2540, AID2599, AID434973, AID489001]; assay type: functional
T4 sequence (P42574 whole entry): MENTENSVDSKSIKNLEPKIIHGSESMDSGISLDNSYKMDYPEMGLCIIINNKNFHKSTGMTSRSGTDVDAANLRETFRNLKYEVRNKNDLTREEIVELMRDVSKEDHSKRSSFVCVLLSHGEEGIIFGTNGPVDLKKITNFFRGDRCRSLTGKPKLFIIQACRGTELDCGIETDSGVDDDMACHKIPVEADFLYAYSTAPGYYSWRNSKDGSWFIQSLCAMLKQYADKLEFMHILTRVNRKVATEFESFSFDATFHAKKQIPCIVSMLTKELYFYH

[12] = target: T5, Sentrin-specific protease 8 (Homo sapiens, UniProt Q96LD8); experiment: inhibition of human SENP8 cleavage activity – biochemical, luminescence, SAR follow-up (AID 504501); assay type: functional
T5 sequence (Q96LD8 whole entry): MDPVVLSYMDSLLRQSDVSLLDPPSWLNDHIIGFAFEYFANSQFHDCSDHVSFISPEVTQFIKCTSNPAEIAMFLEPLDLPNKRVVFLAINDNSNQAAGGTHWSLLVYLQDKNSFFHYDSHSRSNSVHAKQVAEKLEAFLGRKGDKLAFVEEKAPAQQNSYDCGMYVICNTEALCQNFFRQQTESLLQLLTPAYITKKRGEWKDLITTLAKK

[13] = target: Potassium voltage-gated channel subfamily KQT member 2 (Rattus norvegicus, UniProt O88943); experiment: Mode of action assay-Dose response assay for compounds that activate KCNQ2 potassium channels on automated patch clamp. [Related pubchem assays (depositor defined):AID2239, AID2258, AID2287, AID493113]; assay type: functional
Chain of Potassium voltage-gated channel subfamily KQT member 2 (O88943 whole entry): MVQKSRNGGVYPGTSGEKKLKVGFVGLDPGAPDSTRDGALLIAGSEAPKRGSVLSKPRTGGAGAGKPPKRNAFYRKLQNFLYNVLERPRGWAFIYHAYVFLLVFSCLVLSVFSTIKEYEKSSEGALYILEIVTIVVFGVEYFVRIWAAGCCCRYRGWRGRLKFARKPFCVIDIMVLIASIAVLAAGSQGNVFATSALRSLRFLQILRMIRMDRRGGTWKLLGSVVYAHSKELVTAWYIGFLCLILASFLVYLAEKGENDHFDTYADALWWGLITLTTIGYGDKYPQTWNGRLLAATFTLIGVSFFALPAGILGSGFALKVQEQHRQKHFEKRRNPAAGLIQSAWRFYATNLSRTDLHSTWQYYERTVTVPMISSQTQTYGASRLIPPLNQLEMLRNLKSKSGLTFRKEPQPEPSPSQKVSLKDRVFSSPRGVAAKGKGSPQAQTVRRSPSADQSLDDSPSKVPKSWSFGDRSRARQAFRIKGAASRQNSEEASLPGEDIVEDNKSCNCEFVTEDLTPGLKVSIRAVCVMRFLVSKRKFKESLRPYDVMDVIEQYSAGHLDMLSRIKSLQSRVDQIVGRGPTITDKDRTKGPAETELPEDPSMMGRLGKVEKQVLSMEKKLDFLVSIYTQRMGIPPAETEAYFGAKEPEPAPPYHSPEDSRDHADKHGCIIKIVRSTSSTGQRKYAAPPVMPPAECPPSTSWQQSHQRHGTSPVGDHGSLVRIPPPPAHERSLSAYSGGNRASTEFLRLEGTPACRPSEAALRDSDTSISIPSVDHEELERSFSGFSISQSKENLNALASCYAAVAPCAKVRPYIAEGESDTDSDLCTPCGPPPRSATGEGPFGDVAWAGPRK

[14] = activation of human KCNQ1/KCNE1 current – automated patch clamp, CHO cells, selectivity assay for KCNQ2 activator project, dose response (AID 493042); assay type: functional
[15] = target: Potassium voltage-gated channel subfamily KQT member 2/member 3 (Rattus norvegicus, UniProt O88943+O88944); experiment: Mode of action assay-Dose response assay for KCNQ2 activators in the KCNQ2/KCNQ3 co-expressing cells on automated patch clamp. [Related pubchem assays (depositor defined):AID2239, AID2258, AID2287]; assay type: functional
Chain of Potassium voltage-gated channel subfamily KQT member 2/member 3 (O88943 whole entry): as above
Chain of Potassium voltage-gated channel subfamily KQT member 2/member 3 (O88944 whole entry): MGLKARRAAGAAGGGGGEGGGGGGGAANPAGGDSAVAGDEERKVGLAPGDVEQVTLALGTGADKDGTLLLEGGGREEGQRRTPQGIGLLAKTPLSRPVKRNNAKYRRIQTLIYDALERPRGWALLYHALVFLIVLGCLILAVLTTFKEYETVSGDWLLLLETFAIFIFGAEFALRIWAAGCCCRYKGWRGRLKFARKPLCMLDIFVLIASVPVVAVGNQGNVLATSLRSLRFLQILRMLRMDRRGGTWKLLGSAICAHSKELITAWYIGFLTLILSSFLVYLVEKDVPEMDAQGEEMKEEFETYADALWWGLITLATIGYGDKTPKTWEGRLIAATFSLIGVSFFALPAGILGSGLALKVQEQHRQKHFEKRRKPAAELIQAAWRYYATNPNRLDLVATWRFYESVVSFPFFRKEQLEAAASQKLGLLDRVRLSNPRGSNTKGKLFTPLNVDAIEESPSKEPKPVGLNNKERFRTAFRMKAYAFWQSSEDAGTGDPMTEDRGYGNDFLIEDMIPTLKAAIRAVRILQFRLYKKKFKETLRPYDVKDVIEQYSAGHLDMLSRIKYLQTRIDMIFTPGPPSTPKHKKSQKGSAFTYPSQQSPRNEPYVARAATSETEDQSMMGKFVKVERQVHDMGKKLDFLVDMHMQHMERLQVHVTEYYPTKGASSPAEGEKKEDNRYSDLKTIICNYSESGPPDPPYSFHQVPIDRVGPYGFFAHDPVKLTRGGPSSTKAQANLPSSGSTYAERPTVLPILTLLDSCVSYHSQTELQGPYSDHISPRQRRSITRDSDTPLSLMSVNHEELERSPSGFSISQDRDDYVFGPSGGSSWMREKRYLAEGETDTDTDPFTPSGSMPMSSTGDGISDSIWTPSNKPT

Chain of Beta-lactamase (Salmonella choleraesuis (strain SC-B67), UniProt Q5J463) (Q5J463 whole entry): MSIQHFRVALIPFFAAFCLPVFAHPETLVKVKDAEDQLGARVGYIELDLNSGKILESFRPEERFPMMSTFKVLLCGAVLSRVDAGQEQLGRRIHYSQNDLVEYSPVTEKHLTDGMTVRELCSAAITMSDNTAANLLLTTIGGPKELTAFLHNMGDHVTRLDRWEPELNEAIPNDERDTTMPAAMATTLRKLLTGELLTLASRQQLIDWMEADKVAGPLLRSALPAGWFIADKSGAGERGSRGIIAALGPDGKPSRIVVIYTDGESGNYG

With O=C(O)c1ccccc1-c1ccc(/C=C/c2cc(C(F)(F)F)nc(O)n2)o1 the IC50 [1] was 6.74 µM (active), the IC50 [2] was 25 µM (inactive) and the IC50 [3] was > 49.8 µM (inactive). For the same compound, the IC50 [4] was 7 µM (active) and the IC50 [5] was 30.2 µM (inactive).

In the case of O=C(N/N=C/c1ccncc1)c1cccc(NC(=O)c2ccc(Cl)cc2)c1, the IC50 [6] is reported as > 100 µM (inactive), the IC50 [7] is reported as > 100 µM (inactive) and the IC50 [8] is reported as 30.4 µM (active).

In the case of O=C(Nc1nc2ccc(Cl)cc2s1)c1ccsc1, the IC50 [9] is reported as 0.83 µM (active), the IC50 [10] is reported as 1.1 µM (active) and the IC50 [11] is reported as 2.3 µM (active). The IC50 [12] was 0.83 µM (active).

For Cc1cc(C)c(NC(=O)C2CC3CCC2C3)c(C)c1 (stereo not given), the EC50 [13] was 410 nM (active) and 369 nM (active) and 230 nM (active), the EC50 [14] was 31.9 µM (active) and the EC50 [15] was 0.366 µM (active).
